# Source: publication PMC9569971, “New Oxazolo[5,4-d]pyrimidines as Potential Anticancer Agents: Their Design, Synthesis, and In Vitro Biological Activity Research” (International Journal of Molecular Sciences, 2022)
# Experiments:
# [1] = tested on: metastatic colon adenocarcinoma (LoVo); test: MTT viability assay, LoVo; format: cell-based, human
# Procedure: (§1) When the confluence was greater than 70%, adherent cell lines were detached from the bottle surface with a TrypLE solution and then used in assays or reduced. The cells were collected into centrifuge tubes and centrifuged at 1000× g for 5 min at room temperature. The supernatant was removed to dry. The cell pellets were then resuspended in an appropriate medium. The cells were counted using a Bürker chamber and resuspended in 96-well plates to a cell density of 10,000 cells per well for MTT assay. For the rhodamine accumulation test and the detection of apoptosis assay, cells were seeded at a density of 30,000 per well. In the migration assay, cells were seeded at a density of 20,000 per well, and monolayer formation was awaited.
# In this study, normal human dermal fibroblasts (NHDFs), breast cancer cells (MCF7), human lung adenocarcinoma cells (A549), murine fibroblasts (L929), colon adenocarcinoma cells (HT29), and colorectal adenocarcinoma cells (LoVo) were used. All cell lines were cultured in the recommended media. […] The human lung adenocarcinoma cell line A549 and breast cancer cell line MCF-7 were obtained from the ECACC. These cell lines were cultured in Eagle’s minimal essential medium (MEM). Murine fibroblast L929 (Sigma-Aldrich, Merck Group, Headquarters, Darmstadt, Germany; the European Collection of Authenticated Cell Cultures—ECACC) cells were grown in DMEM. […] All media were supplemented with 10% FBS and 100 µg/mL of penicillin–streptomycin.
# All compounds were dissolved in DMSO and the reference drugs were dissolved in physiological saline to concentrations of 10 mM. Concentrations from 1 to 500 μM in the media recommended for the cell lines were prepared for the tests.
# All of the synthesized derivatives were evaluated via the MTT assay. All cell lines were seeded into 96-well plates at a density of 10,000 cells per well. To allow the cells to adhere to the surface of the plates, they were incubated overnight before the application of the test compounds. […] The tests were performed for concentrations of 1, 5, 10, 25, 50, 100, 250, and 500 μM. The solutions of the test compounds were removed from the culture on the 96-well plates. […] The supernatant was then removed. The violet crystal was dissolved in isopropanol for 30 min by shaking. Absorbance was measured at 570 nm.
# Biological assays were performed in three independent replicates, and each replicate used four samples. Three repetitions were made for the ELISA determinations. For the assessment of cytotoxicity, mathematical models were developed using the GraphPad PRISM software, based on which CC50 was determined. The values of CC50 were estimated based on nonlinear regression using the dependence of the biological effect on the molar concentrations of the compounds (four-parameter logistic model with Hill slope).
# [2] = tested on: primary colon adenocarcinoma (HT29); test: MTT viability assay, HT29; format: cell-based, human; settings: for CC50: tested 1–500 µM
# HT29 cells = test: Migration (scratch) assay; format: cell-based, human; settings: control T 155558.2, control T0 544366.45
# Procedure: The scratch test was performed to verify that the tested compound 3g could inhibit the formation of metastases by the HT29 cell line. The seeded HT29 cells were incubated until they formed a monolayer over the entire surface of the well. Then, a scratch test was performed by making a scratch in the monolayer and measuring its width—that is, To, amounting to 544,366.45 μm^2. Freshly prepared compounds were added to the HT29 cells at concentrations of 10, 25, 50, and 100 μM. Breeding plates were incubated for 24 h. The next day, scratch width was measured again using the ImageJ open-source platform. […] The lowest cellular overgrowth of HT29 culture occurred at the concentration of 100 μM for the compound. Compound 3g inhibited the migration of HT29 cells more strongly than the reference drugs, showing that it has the potential to inhibit metastasis. The width of the scratch after 24 h when no compound was applied to the cells was used as a control (T = 155,558.2 μm^2).
# as §1, with “All cell lines were grown in 5% CO2 at 95% humidity and 37 °C, with both morphology and confluence assessed twice per week. When” for “When”
# After seeding, HT29 cells were incubated until they formed a monolayer over the entire surface of the well. A scratch was made on the surface overgrown with cells, and then photomicrographs of the scratch were taken using the EVOS FL microscope. The freshly prepared compound 3g and the reference drugs were added at concentrations of 10, 25, 50, and 100 µM. Then, they were incubated for 24 h, and micrographs were performed at that time using the EVOS FL microscope. The scratch width was measured using the ImageJ open-source platform. The measurement of scratch width was also performed after 24 h without adding compounds.
# BCL-2 = BCL-2 Human ELISA Kit, HT29 lysate; format: cell-based; settings: lysate of HT29 cells treated with 3g; SD ±0.11
# Procedure: The assay was performed on a lysate of the HT29 colon adenocarcinoma cell line treated with compound 3g. The wells of the assay microplate were coated with a BCL-2-specific antibody, and the BCL-2 present in the test and standards was bound to the antibodies adsorbed in the microwells, which were washed twice with 400 µL of washing buffer per well with careful aspiration. The washing buffer was left in the wells for 15 s before aspiration. Care was taken not to scratch the surface of the microwells. Following the final washing step, the wells were emptied and excess washing buffer was discarded. Two rows of the human standard BCL-2 were prepared at dilutions ranging from 32.0 to 0.5 ng/mL. Biotin conjugate was prepared, and 50 µL of biotin conjugate was added to all wells, covered with adhesive foil, and incubated at room temperature (18 to 25 °C) for 2 h on a microplate shaker. The adhesive film was removed and washed 3 times. […] The color change of the mixture was monitored with an ELISA reader at 620 nm. […] The results were read immediately after the stop solution was added. The reading was taken at the original wavelength of 450 nm. […]
# Biological assays were performed in three independent replicates, and each replicate used four samples. […] For the assessment of cytotoxicity, mathematical models were developed using the GraphPad PRISM software, based on which CC50 was determined. […]
compound,measurement,setting,value
"Cc1noc(N)c1-c1nc2c(NCCCN(C)C)ncnc2o1 [Compound 3g, 2-(5-Amino-3-methylisoxazol-4-yl)-7-N-[3-(N,N-dimethylamino)propyl]aminooxazolo[5,4-d]pyrimidine]",SI (selectivity index),[1]; CC50 NHDF / CC50 LoVo,0.695
same,CC50,"[1]; Homo sapiens, LoVo, MTT, tested 1–500 µM",224 ± 17.1 µM
same,SI (selectivity index),[2]; CC50 NHDF / CC50 HT29,2.662
same,CC50,"[2]; HT29, MTT",58.4 ± 8.75 µM
same,CC50,"[2]; Homo sapiens, HT-29, HT29, MTT",58.4 µM
same,"scratch width after 24 h, mean",HT29 cells; 10 μM,180844 μm^2
same,"scratch width after 24 h, mean",HT29 cells; 25 μM,218581.6 μm^2
same,"scratch width after 24 h, mean",HT29 cells; 50 μM,245687.8 μm^2
same,"scratch width after 24 h, mean",HT29 cells; 100 μM,314566.8 μm^2
same,BCL-2 concentration,BCL-2,0.41 ng/mL
